Source: US12084444B2, “Spiro-lactam NMDA modulators and methods of using same” (Tenacia Biotechnology (Hong Kong) Co., Limited, priority 2016, dated 2024)

Legend:
[1] = target: T1, NMDAR2B expressing HEK cell membranes (Homo sapiens, UniProt Q05586+Q13224); assay: NMDAR agonist assay, [3H]MK-801 binding, NMDAR2B; format: biochemical; details: 50 μM glutamate
T1 construct: expressed in transfected cells; host or cells: HEK cells (membrane extract)
Outline: (§1)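 HEK membranes (300 μg protein) expressing each subtype were preincubated 15 min at 25 °C with 50 μM glutamate and compound (1×10^−15–1×10^−7 M) or 1 mM glycine. [3H]MK-801 (0.3 μCi) binding then ran 15 min under nonequilibrium conditions, followed by filtration. EC50 and % maximal binding against 1 mM glycine came from three-parameter fits of baseline-subtracted DPM (N=2).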

[2] = target: T2, NMDAR2D expressing HEK cell membranes (Homo sapiens, UniProt O15399); assay: NMDAR agonist assay, [3H]MK-801 binding, NMDAR2D; format: biochemical; details: 50 μM glutamate
T2 construct: expressed in transfected cells; host or cells: HEK cells (membrane extract)
Experimental: (§2) Assays were conducted as described by Moskal et al., “GLYX-13: a monoclonal antibody-derived peptide that acts as an N-methyl-D-aspartate receptor modulator,” Neuropharmacology, 49, 1077-87, 2005. These studies were designed to determine if the test compounds act to facilitate NMDAR activation in NMDAR2A, NMDAR2B, NMDAR2C or NMDAR2D expressing HEK cell membranes as measured by increases in [^3H]MK-801 binding.
(§3) In the assay, 300 μg of NMDAR expressing HEK cell membrane extract protein was preincubated for 15 minutes at 25° C. in the presence of saturating concentrations of glutamate (50 μM) and varying concentrations of test compound (1×10^−15 M-1×10^−7 M), or 1 mM glycine. Following the addition of 0.3 μCi of [^3H]MK-801 (22.5 Ci/mmol), reactions were again incubated for 15 minutes at 25° C. (nonequilibrium conditions). Bound and free [^3H]MK-801 were separated via rapid filtration using a Brandel apparatus.
(§4) In analyzing the data, the DPM (disintegrations per minute) of [^3H]MK-801 remaining on the filter were measured for each concentration of test compound or for 1 mM glycine. The DPM values for each concentration of a ligand (N=2) were averaged. The baseline value was determined from the best fit curve of the DPM values modeled using the GraphPad program and the log(agonist) vs. response(three parameters) algorithm was then subtracted from all points in the dataset. The % maximal [^3H]MK-801 binding was then calculated relative to that of 1 mM glycine: all baseline subtracted DPM values were divided by the average value for 1 mM glycine. The EC50 and % maximal activity were then obtained from the best fit curve of the % maximal [^3H]MK-801 binding data modelled using the GraphPad program and the log(agonist) vs. response(three parameters) algorithm.
(§5) The tables below summarize the results for the wild type NMDAR agonists NMDAR2A, NMDAR2B, NMDAR2C, and NMDAR2D, and whether the compound is not an agonist (−), is an agonist (+), or is a strong agonist (++), where column A is based on the % maximal [^3H]MK-801 binding relative to 1 mM glycine (−=0; <100%=+; and >100%=++); and column B is based on log EC50 values (0=−; ≥1×10^−9 M (e.g., −8)=+; and <1×10^−9 M (e.g., −10)=++).

[3] = target: T3, NMDAR2D expressing HEK cell membranes (Homo sapiens, UniProt O15399+Q05586); assay: NMDAR agonist assay, [3H]MK-801 binding, NMDAR2D; format: biochemical; details: 50 μM glutamate; read-out: NMDAR2D B: log EC50 (converted)
T3 construct: expressed in transfected cells; host or cells: HEK cells (membrane extract)
Experimental: as §2, §3, §4, §5

[4] = target: T4, NMDAR2A expressing HEK cell membranes (Homo sapiens, UniProt Q12879); assay: NMDAR agonist assay, [3H]MK-801 binding, NMDAR2A; format: biochemical; set-up: key to NMDAR2A B: log EC50: 0=−; ≥1×10^−9 M (e.g., −8)=+; <1×10^−9 M (e.g., −10)=++; details: 50 μM glutamate
T4 construct: expressed in transfected cells; host or cells: HEK cells (membrane extract)
T4 sequence (Q12879 23-1464, other chains not shown): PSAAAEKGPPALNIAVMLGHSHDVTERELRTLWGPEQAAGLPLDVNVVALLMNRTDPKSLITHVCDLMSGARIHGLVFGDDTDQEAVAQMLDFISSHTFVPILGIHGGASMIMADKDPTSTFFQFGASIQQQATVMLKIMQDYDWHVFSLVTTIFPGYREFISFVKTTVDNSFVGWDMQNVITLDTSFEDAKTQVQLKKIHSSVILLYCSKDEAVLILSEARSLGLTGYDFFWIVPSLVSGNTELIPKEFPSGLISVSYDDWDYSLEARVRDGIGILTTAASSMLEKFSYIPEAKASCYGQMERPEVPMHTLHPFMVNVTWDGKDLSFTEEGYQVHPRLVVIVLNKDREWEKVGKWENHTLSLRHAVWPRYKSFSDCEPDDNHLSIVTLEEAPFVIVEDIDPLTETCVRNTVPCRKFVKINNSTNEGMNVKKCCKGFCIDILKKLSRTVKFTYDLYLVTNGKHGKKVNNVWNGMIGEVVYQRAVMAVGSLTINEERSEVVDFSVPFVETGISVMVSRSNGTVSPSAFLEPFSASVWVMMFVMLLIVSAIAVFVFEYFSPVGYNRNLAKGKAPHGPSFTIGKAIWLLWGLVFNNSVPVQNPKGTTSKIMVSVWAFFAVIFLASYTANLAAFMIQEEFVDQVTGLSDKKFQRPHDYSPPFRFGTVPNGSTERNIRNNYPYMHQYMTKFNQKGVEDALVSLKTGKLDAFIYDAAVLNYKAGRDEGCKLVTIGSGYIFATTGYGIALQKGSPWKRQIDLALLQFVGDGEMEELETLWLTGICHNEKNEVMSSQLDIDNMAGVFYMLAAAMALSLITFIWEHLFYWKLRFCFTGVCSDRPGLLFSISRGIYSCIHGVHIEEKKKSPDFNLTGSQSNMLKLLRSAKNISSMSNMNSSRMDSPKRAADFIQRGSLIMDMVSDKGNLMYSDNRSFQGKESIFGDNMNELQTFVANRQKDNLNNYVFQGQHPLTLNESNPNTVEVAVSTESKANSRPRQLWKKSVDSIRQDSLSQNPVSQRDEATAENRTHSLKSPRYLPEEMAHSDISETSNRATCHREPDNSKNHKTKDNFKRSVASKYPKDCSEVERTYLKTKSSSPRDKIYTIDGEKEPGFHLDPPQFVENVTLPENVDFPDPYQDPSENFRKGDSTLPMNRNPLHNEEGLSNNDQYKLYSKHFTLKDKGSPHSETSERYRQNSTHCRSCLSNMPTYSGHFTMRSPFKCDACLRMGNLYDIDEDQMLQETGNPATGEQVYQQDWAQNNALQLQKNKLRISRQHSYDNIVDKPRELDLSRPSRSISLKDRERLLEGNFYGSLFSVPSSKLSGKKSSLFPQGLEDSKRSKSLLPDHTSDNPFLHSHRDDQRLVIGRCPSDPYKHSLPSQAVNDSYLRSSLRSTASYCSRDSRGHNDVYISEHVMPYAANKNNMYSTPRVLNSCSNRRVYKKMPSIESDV
Outline: as §1

[5] = target: T5, NMDAR2A expressing HEK cell membranes (Homo sapiens, UniProt Q05586+Q12879); assay: NMDAR agonist assay, [3H]MK-801 binding, NMDAR2A; format: biochemical; set-up: key to NMDAR2A B: log EC50: 0=−; ≥1×10^−9 M (e.g., −8)=+; <1×10^−9 M (e.g., −10)=++; details: 0.25 h, 50 μM glutamate; read-out: NMDAR2A A: % maximal [3H]MK-801 binding relative to 1 mM glycine
T5 construct: expressed in transfected cells; host or cells: HEK cells (membrane extract)
T5 sequence (Q12879 23-1464, other chains not shown): as above
Outline: as §1

[6] = target: T6, NMDAR2C expressing HEK cell membranes (Homo sapiens, UniProt Q14957); assay: NMDAR agonist assay, [3H]MK-801 binding, NMDAR2C; format: biochemical; details: 50 μM glutamate
T6 construct: expressed in transfected cells; host or cells: HEK cells (membrane extract)
Experimental: as §2, §3
as §4, with “algorithm. […]” for “algorithm.”

[7] = Oral pharmacokinetics (plasma, brain, CSF); format: in vivo, Sprague Dawley rats; details: rat, per os, 10 mg/kg
Experimental: In another experiment, Sprague Dawley rats were dosed per os using a normal saline formulation containing 10 mg/kg of the compounds identified in the table below. Plasma, brain, and CSF samples were analyzed at various time points over a 24 hour period. The table below summarizes the results of the oral pharmacokinetics.

IV pharmacokinetics = assay: IV pharmacokinetics; set-up: species or system Sprague Dawley rats; details: Sprague Dawley, in vivo, rat, 2 mg/kg, normal saline
Experimental: Sprague Dawley rats were dosed intravenously using a normal saline formulation containing 2 mg/kg of the compounds identified in the below table. The table below summarizes the results of the IV pharmacokinetics.

Sprague Dawley rats [8] = assay: Porsolt forced swim test; format: in vivo
Experimental: A non-clinical in vivo pharmacology study (Porsolt assay) was performed to measure antidepressant-like effects. A negative control (0.5% sodium carboxymethyl cellulose in 0.9% sterile saline vehicle) and a positive control (fluoxetine) are shown for comparison against test compound. The study allowed for the evaluation of the effects of each compound on the Porsolt forced swim test as assessed by the rats' response (reduced floating time) during a 5-minute swimming test.
Male 2-3 month old Sprague Dawley rats were used (Harlan, Indianapolis, IN). Rats were housed in Lucite cages with aspen wood chip bedding, maintained on a 12:12 light:dark cycle (lights on at 5 AM), and given ad libitum access to Purina lab chow (USA) and tap water throughout the study.
The Porsolt forced swim test adapted for use in rats was performed as described by Burgdorf et al., (The long-lasting antidepressant effects of rapastinel (GLYX-13) are associated with a metaplasticity process in the medial prefrontal cortex and hippocampus. Neuroscience 308:202-211, 2015). Animals were placed in a 46 cm tall×20 cm in diameter clear glass tube filled to 30 cm with tap water (23±1° C.) for 15 min on the first day (habituation) and 5 min on the subsequent test day. Positive control fluoxetine was dosed 3 times (24 h, 5 h and 1 h) prior to testing. Animals were tested 1 h or 24 h post-dosing with the test compounds or vehicle. Animals received a 15 min habituation session 1 day before the 5 min test. Water was changed after every other animal. Animals were videotaped, and floating time as defined as the minimal amount of effort required to keep the animals head above water was scored offline by a blinded experimenter with high inter-rater reliability (Pearson's r>0.9).
Each compound tested at dose level shown. Significance vs. vehicle group for each experiment is marked. […] A compound marked “No” was not statistically significant from vehicle. Data was averaged for test compound and vehicle groups (N approximately 8 per group) and the percent reduction in floating for group treated with test compound relative to group treated with vehicle is shown.

Sprague Dawley rats [9] = assay: Bennett model of mechanical analgesia (sciatic nerve chronic constriction injury); format: in vivo; details: 150 mg/kg PO
Experimental: The Bennett model of mechanical analgesia is used to assess the analgesic effects of compounds as measured by paw withdrawal threshold. Bennett G J, Xie Y K, “A peripheral mononeuropathy in rat that produces disorders of pain sensation like those seen in man,” Pain 33:87-107, 1988. […] Vehicle animals receive the surgery and then receive vehicle rather than test compound. Animals were tested 1 hr, 24 h and 1 wk post-test compound or vehicle administration.
Male 2-3 month old Sprague Dawley rats were used. Harlan was the supplier for all studies. Rats were housed in Lucite cages with aspen wood chip bedding, maintained on a 12:12 light:dark cycle (lights on at 5 AM), and given ad libitum access to Purina lab chow (USA) and tap water throughout the study.
Rats were anesthetized using inhaled isoflurane (2.5%). Sciatic nerve chronic constriction nerve injury surgery was performed as previously described (Bennett and Xie, 1988). An incision (˜1.5 cm in length) was made with a scalpel blade dorsally through skin on the right hind limb, parallel and posterior to femur. Using a small pointed hemostat, the biceps femoris and gluteus superficialis muscles were separated. Using curved blunt forceps, the common sciatic nerve was isolated and exposed. For the mechanical analgesia studies, the whole sciatic nerve was ligated. Using hemostats/forceps and chromic gut (5-0), the nerve was loosely ligated with a square knot; 3 ligatures, 1 mm apart were placed on the nerve. […] Testing occurred approximately 2 weeks post-surgery.
During testing, rats were acclimated to the surface of a suspended wire mesh grid (1 cm×1 cm, with the wire being 0.3 cm in diameter) for 15-20 min. Starting from the smallest, each Von Frey filament was pressed perpendicularly to the plantar surface of the affected (ipsilateral) hind paw until slightly bent and then held for 6 second. If an obvious hind paw withdrawal or a flinching behavior immediately after the withdrawal of the filament was not observed, the next larger filament was used in the same manner. In case of a response, a lower filament was used. This was repeated until six responses were collected.
For all studies, animals were baselined prior to study start to test for allodynia (defined as a paw withdrawal threshold under 5). A subset of animals was tested with gabapentin (150 mg/kg, PO) to ensure at least 50% analgesia. Once it was confirmed animals were ready for study initiation, animals were balanced across groups. All study investigators were blind to treatment conditions. Animals were dosed with 0.1, 1, 10, or 30 mg/kg of test compound via oral gavage (PO), control sets of animals were dosed with gabapentin (150 mg/kg, PO) or vehicle (0.5% Na-CMC in 0.9% sterile saline, PO). Testing occurred 1 h post-dosing with animals retested 24 hrs and 1 week post-dosing. The percent analgesia calculations for each animal were made using the following equation: % analgesia=[(log(x)−y)/((log (z)−y)]*100, where x=the paw withdrawal threshold for the drug-treated animal in grams, y=the average of the log(x) values for the vehicle treated group, and z=the paw withdrawal threshold for naïve animals in grams (historical value of 15 used). The results for Compound AA-2, where the percentage of analgesia is measured at 1 hour, 24 hours, and 1 week after compound administration are as follows: for 0.1 mg/kg dose: 22.3% at 1 h, 1.6% at 24 h, and 2.3% at 1 wk; for 1 mg/kg dose: 19.2% at 1 h, 10.7% at 24 h, and 11.0% at 1 wk; for 10 mg/kg dose: 38.1% at 1 h, 24.3% at 24 h, and 41.4% at 1 wk; and for 30 mg/kg dose: 24.4% at 1 h, 8.7% at 24 h, and 34.5% at 1 wk.

[10] = 1 h post-dose, 20 mg/kg, dosed 3 times (24 h, 5 h and 1 h) prior to testing

T1 sequence (Q13224 27-1484, other chains not shown): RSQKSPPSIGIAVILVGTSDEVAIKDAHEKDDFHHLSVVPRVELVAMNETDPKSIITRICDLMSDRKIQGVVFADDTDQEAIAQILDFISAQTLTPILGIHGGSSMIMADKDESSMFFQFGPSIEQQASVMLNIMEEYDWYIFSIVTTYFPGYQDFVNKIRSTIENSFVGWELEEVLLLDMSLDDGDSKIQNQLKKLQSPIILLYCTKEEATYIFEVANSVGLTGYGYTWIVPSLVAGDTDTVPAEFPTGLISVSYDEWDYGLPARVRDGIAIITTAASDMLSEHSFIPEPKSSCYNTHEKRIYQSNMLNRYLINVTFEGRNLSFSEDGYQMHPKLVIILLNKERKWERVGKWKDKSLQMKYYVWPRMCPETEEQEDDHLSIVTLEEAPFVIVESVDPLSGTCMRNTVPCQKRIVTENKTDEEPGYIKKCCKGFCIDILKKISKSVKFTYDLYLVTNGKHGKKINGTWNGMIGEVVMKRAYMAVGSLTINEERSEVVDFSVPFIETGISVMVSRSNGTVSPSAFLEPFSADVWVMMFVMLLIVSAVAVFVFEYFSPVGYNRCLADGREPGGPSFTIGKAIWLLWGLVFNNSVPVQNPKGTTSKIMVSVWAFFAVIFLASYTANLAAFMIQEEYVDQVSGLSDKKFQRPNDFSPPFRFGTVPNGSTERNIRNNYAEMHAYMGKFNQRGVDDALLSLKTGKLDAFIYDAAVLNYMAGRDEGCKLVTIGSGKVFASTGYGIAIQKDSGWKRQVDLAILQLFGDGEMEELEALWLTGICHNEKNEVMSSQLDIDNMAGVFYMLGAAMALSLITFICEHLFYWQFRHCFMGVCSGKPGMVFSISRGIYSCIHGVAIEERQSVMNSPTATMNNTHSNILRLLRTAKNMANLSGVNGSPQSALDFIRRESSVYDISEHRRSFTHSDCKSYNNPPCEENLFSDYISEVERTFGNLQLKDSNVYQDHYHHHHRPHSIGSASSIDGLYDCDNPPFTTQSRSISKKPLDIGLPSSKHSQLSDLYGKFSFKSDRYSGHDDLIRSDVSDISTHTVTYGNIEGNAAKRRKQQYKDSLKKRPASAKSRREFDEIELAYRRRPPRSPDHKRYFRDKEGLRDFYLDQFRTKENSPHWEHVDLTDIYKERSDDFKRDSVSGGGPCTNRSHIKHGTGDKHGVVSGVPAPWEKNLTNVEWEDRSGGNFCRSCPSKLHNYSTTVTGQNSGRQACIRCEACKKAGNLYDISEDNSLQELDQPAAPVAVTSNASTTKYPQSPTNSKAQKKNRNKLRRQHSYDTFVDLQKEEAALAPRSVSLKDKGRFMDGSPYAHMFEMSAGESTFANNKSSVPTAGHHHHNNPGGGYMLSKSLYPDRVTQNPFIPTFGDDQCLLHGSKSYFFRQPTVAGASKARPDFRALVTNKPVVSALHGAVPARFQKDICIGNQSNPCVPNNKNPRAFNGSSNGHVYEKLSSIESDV

SMILES: COc1ccc(CN2CC3(CCNC(=O)C3)C2=O)cc1 (racemic) [AA-rac, 2-(4-methoxybenzyl)-2,7-diazaspiro[3.5]nonane-1,6-dione]
- EC50 ([1]; read-out: NMDAR2B B: log EC50 (converted)): < 1 nM
- Emax ([1]; 0.25 h, read-out: NMDAR2B A: % maximal [3H]MK-801 binding relative to 1 mM glycine): < 100%
- NMDAR2D A: % maximal [3H]MK-801 binding relative to 1 mM glycine [2]: + (<100%=+)
- EC50 [3]: < 1 nM
- NMDAR2A B: log EC50 [4]: −
- Emax [5]: 0%
- NMDAR2C A: % maximal [3H]MK-801 binding relative to 1 mM glycine [6]: − (−=0)
- AUC(0-t) ([7]; Sprague Dawley, plasma, po): 17.8 µg·h/mL
- bioavailability ([7]; Sprague Dawley, plasma, po): 57%
- Tmax ([7]; Sprague Dawley, plasma, po, normal saline): 0.67 h
- Cmax ([7]; Sprague Dawley, po, plasma): 5.81 µg/mL
- CSF Cmax ([7]; CSF): 1.4669 µg/mL
- Brain Cmax ([7]; brain): 0.951 µg/mL
- AUC(0-t) (IV pharmacokinetics): 6.3 µg·h/mL
- C0 (IV pharmacokinetics): 5.79 µg/mL
- clearance (IV pharmacokinetics): 0.317 L/h/kg
- half-life (IV pharmacokinetics): 3.31 h
- Vd (IV pharmacokinetics; read-out: Vss): 0.56 L/kg
- Significance vs. vehicle (Sprague Dawley rats [8]; 1 h post-dose, 0.1 mg/kg): Yes (found to be statistically significant (p<=0.05) from vehicle at dose level shown)
- % reduction in float time (Sprague Dawley rats [8]; 1 h post-dose, 0.1 mg/kg, relative to vehicle group): 77.4%
- Significance vs. vehicle (Sprague Dawley rats [8]; 24 h post-dose, 0.1 mg/kg): Yes (found to be statistically significant (p<=0.05) from vehicle at dose level shown)
- % reduction in float time (Sprague Dawley rats [8]; 24 h post-dose, 0.1 mg/kg, relative to vehicle group): 74.40%

SMILES: CNCCC(Oc1ccc(C(F)(F)F)cc1)c1ccccc1 (stereo not drawn) [Fluoxetine, fluoxetine, reference compound]
- % reduction in float time (Sprague Dawley rats [8]; [10]): 54%
- Significance vs. vehicle (Sprague Dawley rats [8]; [10]): Yes (found to be statistically significant (p<=0.05) from vehicle at dose level shown)

SMILES: NCC1(CC(=O)O)CCCCC1 [gabapentin, reference compound]
- % analgesia, for the study (Sprague Dawley rats [9]; 1 week post-administration): under 5%
- % analgesia, example (typical) control value (Sprague Dawley rats [9]; 1 wk): 0%
- % analgesia, example (typical) control value (Sprague Dawley rats [9]; 1 h): 72%
- % analgesia, for the study (Sprague Dawley rats [9]; 1 h post-administration): at least 50%
- % analgesia, example (typical) control value (Sprague Dawley rats [9]; 24 h): 16%
- % analgesia, for the study (Sprague Dawley rats [9]; 24 h post-administration): under 5%
